Reference: patent US10624917B2, “Compositions and methods useful for treating or preventing liver diseases or disorders, and promoting weight loss” (YALE UNIVERSITY, priority 2014, dated 2020)
Entries after “also recorded” stand apart in the source; their conditions may differ.

Columns and labels:
[1] = test system: mice, chronic plus binge model of alcoholic hepatitis; experiment: Chronic plus binge model of alcoholic hepatitis; type: in vivo, mouse
Procedure: (§1) C57BL/6J male mice were placed on a 45% high-fat diet (HFD) for […] with and without digoxin (ip 1 mg/kg twice a week). Digoxin, 1 mg/kg ip daily, in mice results in the therapeutic serum levels achieved in humans (0.5-2 ng/ml). Plasma ALT, liver histology, neutrophil staining, leukocytes profiling, mitochondrial reactive oxygen species (ROS) generation, and gene transcriptome microarrays were analyzed. The ability of digoxin to inhibit inflammasome in mouse and human macrophages was tested. The chronic plus binge model of alcoholic hepatitis and LPS/D-GalN hepatitis models were also performed.

mouse macrophages = experiment: Mitochondrial ROS production in mouse macrophages; type: cell-based; conditions: TLR and hydrogen peroxide stimulation
[2] = test system: C57BL/6 mice on high-fat diet; experiment: High-fat diet (HFD) NASH model; type: in vivo, mouse
Procedure: FIGS. 21A-21C illustrate the finding that digoxin reduces liver damage, inflammation, glycolysis and total cholesterol. FIG. […] The liver tissues were performed by H & E staining, and the neutrophils were stained with CD11b/Ly6G double positive cells by FACS. Data are expressed as the mean±SD from 5 mice in each treatment group. *p<0.05 determined by Student's t-test. […] Data are expressed as the mean±SD from 5 mice in each treatment group. *p<0.05 determined by Student's t-test. FIG. 21C: The liver total RNA were isolated from as procedure from FIG. 21a, and subjected to illumina transcriptome analysis. Over 15 genes that most highly expressed were listed. Data are expressed as the mean±SD from 3 mice in each treatment group
FIGS. 22A-22D illustrate the finding that digoxin reduces high fat feeding induced obesity in mice. Wild type C57BL/6 mice were supplied with high-fat diet food (Research diets D12451 45% fat) for 12 weeks with or without the concurrent IP injection of Digoxin (twice a week, 1.0 mg/kg) or PBS control. The body weight was carefully monitored as the change of each 3 day's average. […] FIG. 22A illustrates examples of mice on high-fat diet with (DIG) and without (Ctrl) digoxin. […] The ratio of white adipose tissue and bodyweight after 12 weeks is shown (FIG. 22C). […] Data are expressed as the mean±SD from 5 mice in each treatment group. *p<0.05 determined by Student's t-test.
FIGS. 24A-24G illustrate the finding that digoxin limits hepatic steatosis and inflammation. […] The liver tissues were applied for H & E staining, and graphs show quantification of NAFLD histological activity score (FIGS. 24A-24B). The liver tissue inflammation was also determined by the neutrophil and monocyte infiltration, which measured by CD11b/Ly6G and CD11b/Ly6C double positive cells using FACS ([…]). Representative FACS flows from digoxin versus saline control are shown (FIGS. 24F-24G). The quantification of neutrophils and monocytes in digoxin versus saline control was performed. Serum ALT level in digoxin versus saline control was measured (FIGS. 24C-24D). The steatosis maker of triacylglcerol (TG) accumulation in the lever after digoxin treatment versus saline control was determined (FIG. 24E). All data throughout the figure are shown as the mean±SD from 5 mice in each group. Statistical significance was determined by one-way ANOVA. *p<0.05, **p<0.01 for each digoxin group versus saline control.
as §1

human macrophages = experiment: Mitochondrial ROS production in human macrophages; type: cell-based; conditions: TLR and hydrogen peroxide stimulation
[3] = test system: C57BL/6 mice challenged with LPS/D-galactosamine; experiment: LPS/D-GalN hepatitis (acute liver injury) model; type: in vivo, mouse
Procedure: FIGS. 23A-23D illustrate the finding that digoxin protects the severity of experimental acute liver failure. Digoxin was administrated intraperitoneally to C57BL/6 mice at dose level of 2, 1, 0.2, 0.05 mg/kg body weight and saline control for 1 hour, and then the mice were challenged with LPS (1 mg/kg body weight)/D-galactosamine (D-GalN) for 5 hours. The morphology of liver tissue was determined by H & E staining, and the inflammation was determined by the neutrophil infiltration of Gr-1 antibody staining Representative H & E stains (FIG. 23A, upper), and Gr-1 (FIG. 23A, lower) positive area of liver sections (original magnification ×100) from digoxin and saline control are illustrated. Graphs show quantification of injured (FIG. 23B) or Gr-1 (FIG. 23C) positive area by morphometry using Image J. *p<0.05 for each dosage of digoxin group versus saline control. The activity of the hepatic injury marker alanine transaminase (ALT) in serum level from digoxin versus saline control was measured (FIG. 23 D). All data throughout the figure are shown as the mean±SD. Statistical significance was determined by one-way ANOVA.
FIGS. 25A-25H illustrate the finding that digoxin alleviates hepatic oxidative stress and inflammasome activation. C57BL/6 mice were injected intraperitoneally with digoxin (1 mg/kg) and PBS control for 1 hour, and then challenged with LPS (1 mg/kg)/D-GlaN (500 mg/kg) for 5 h; C57BL/6 mice were on HFD with concurrent intraperitoneal injection of digoxin (1 mg/kg) for 12 weeks. The cellular oxidative stress and intracellular ROS production was monitored by intraperitoneal injection of DHE in last 30 min before the mice sacrificed. Representative DHE stains in LPS/D-GlaN (FIG. 25A) and HFD (FIG. 25B) from digoxin versus saline control are illustrated. The quantification of DHE positive area in digoxin versus saline control was performed (FIG. 25A, lower, and FIG. 25B, lower). The total RNA from liver tissue was isolated, and applied for gene expression of proIL-1β, TNFα, NLRP3 and HIF1a (FIGS. 25C-25F). The total liver protein was applied for protein expression of HIF1α, caspase-1, proIL-1β by western blot (FIG. 25H). The serum IL-1β was measured by ELISA (FIG. 25G). All data throughout the figure are shown as the mean±SD from 5 mice in each group. Statistical significance was determined by one-way ANOVA. *p<0.05, **p<0.01 for each digoxin group versus saline control.
as §1

[4] = test system: IL-1β secretion and caspase-1 activation in mouse macrophages; experiment: Inflammasome inhibition in mouse macrophages; type: cell-based
Procedure: as §1

in vivo = conditions: mouse, 1 mg/kg
Procedure: FIG. 19 is a bar graph illustrating plasma digoxin levels in mice. Saline or digoxin were daily injected in mice at a dose of 1.0 mg/kg. Plasma digoxin levels measured 24 hours after the final injection were at or below the therapeutic range for humans (0.8-2 ng/mL).
as §1

[5] = HFD 12 weeks, IP twice a week 1.0 mg/kg
[6] = HFD 12 weeks, ip 0.2 and 0.05 mg/kg twice a week, low dose-dependent manner
[7] = ip 1 mg/kg, LPS/D-GlaN (5 h) and HFD (12 weeks) mice
[8] = twice, a quarter and a twentieth of the human equivalent dose

## C[C@H]1O[C@@H](O[C@@H]2[C@@H](O)C[C@H](O[C@@H]3[C@@H](O)C[C@@H](O[C@H]4CC[C@@]5(C)[C@H](CC[C@@H]6[C@@H]5C[C@@H](O)[C@]5(C)C(C7=CC(=O)OC7)CC[C@]65O)C4)O[C@@H]3C)O[C@@H]2C)C[C@H](O)[C@H]1O (stereo partly drawn) [digoxin, 4-[(3S,5R,8R,9S,10S,12R,13S,14S)-3-[(2S,4S,5R,6R)-5-[(2S,4S,5R,6R)-5-[(2S,4S,5R,6R)-4,5-dihydroxy-6-methyl-oxan-2-yl]oxy-4-hydroxy-6-methyl-oxan-2-yl]oxy-4-hydroxy-6-methyl-oxan-2-yl]oxy-12,14-dihydroxy-10,13-dimethyl-1,2,3,4,5,6,7,8,9,11,12,15,16,17-tetradecahydrocyclopenta[a]phenanthren-17-yl]-5H-furan-2-one]
[1]
  histological injury: reduced
  neutrophilic infiltrate: reduced
  serum ALT: lower
Mouse macrophages
  mitochondrial ROS production: dose-dependently inhibited
[2]; HFD 12 weeks, 1 mg/kg twice a week
  fat deposition (liver oil red, TG content): reduces
[2]; [5]
  glycolysis: reduces
  high fat feeding induced obesity: reduces
  liver damage: reduces
  serum total cholesterol: reduces
[2]; [6]
  hepatic steatosis: limits
  liver inflammation: limits
[2]; HFD liver
  signal genes of ROS metabolism, antioxidant pathway and glycolysis (microarray): down-regulated
[2]; HFD+DIG, HFD alone 417±398 U/L, P<0.001
  serum ALT: 91±73 U/L
[2]; HFD, IP twice a week 1 mg/kg
  liver inflammation: reduces; also recorded: limits
[2]; HFD, ip 1 mg/kg twice a week
  hepatic steatosis: limits
  histological injury: reduced
  neutrophilic infiltrate: reduced
[2]; digoxin started after 4 weeks HFD
  liver inflammation: significant reduction
[2]; digoxin started after 4 weeks HFD, HFD alone 24.6%
  liver neutrophil: 14.3%
[2]; digoxin started after 4 weeks HFD, HFD alone 31.6%
  liver monocytes: 19.1%
[2]; mice on HFD
  body weight / weight gain: less weight gain; also recorded: changes
Human macrophages
  mitochondrial ROS production: dose-dependently inhibited
[3]; LPS/D-GalN hepatitis
  histological injury: reduced
  neutrophilic infiltrate: reduced
  serum ALT: lower
[3]; [7]
  hepatic oxidative stress: alleviates
  inflammasome activation: alleviates
[3]; ip 2, 1, 0.2, 0.05 mg/kg 1 hour before LPS/D-GalN for 5 hours
  severity of experimental acute liver failure: protects
[3]; mouse, in vivo
  inflammation in an acute liver injury model: inhibits
[3]; [8]
  HIF-1α protein: reduction
  IL-1β protein: reduction
  cleaved (P10) caspase-1 protein: reduction
  liver HIF-1α transcripts: reduction
  liver Pro-IL-1β transcripts: reduction
  liver hemorrhage and necrosis: improvement
  pro-IL-1β protein: reduction
[4]
  IL-1 β secretion: inhibited
  caspase-1 activation: inhibited
In vivo
  concentration at 24 h: 0.8 to 2 ng/mL
In vivo; ip
  concentration at 24 h: 0.5 to 2 ng/mL
